Measured values as given in US8097759B2, “Inflammatory cytokine release inhibitor” (Institute of Medicinal Molecular Design, Inc., priority 2000, dated 2012).

Test system: NF-κB activation
Experiment: NF-κB activation reporter assay (pNFκB-Luc luciferase) under TNF-α stimulation
Assay type: cell-based, human
Conditions: HepG2 or HeLa cells, TNF-α 40 ng/ml, 4 hours; for inhibition at 1 µg/mL / inhibition at 10 µg/mL: Homo sapiens, read-out: The rate of inhibitory activity against NF-κB activation (%)
Procedure: Using a transfection reagent (Effectene; QIAGEN), the human hepatoma cell strain HepG2 or the human hysterocarcinoma cell strain HeLa was transfected with the firefly luciferase gene (Luc) contained plasmid (pNF κB-Luc Reporter Plasmid; […]) which contained oligonucleotide having five tandem copies of NF-κB binding sequences ([…]) on a upstream region of Luc, according to the QUAGEN's protocol and it was incuvated for 6-24 hours. After addition of TNF-α (40 ng/ml) with or without the test compound, the cells were incuvated for 4 hours, and intracellular luciferase activity was measured with PicaGene LT (TOYO INK MFG Co., Ltd.) and chemical luminescence measurement device ([…]luor Plus; TECAN). The inhibition ratio was measured as a ratio to the value of the luciferase activity without the test compound.

[1] = Concentration of the agent: 1 μg/mL
[2] = Concentration of the agent: 10 μg/mL

`COc1cc(NC(=O)c2cc(Br)ccc2O)cc(OC)c1` [Compound 168] was tested, and the inhibition at 1 µg/mL [1] was 38.3% and the inhibition at 10 µg/mL [2] was 96.8%.

Work on `CCOC(=O)c1sc(NC(=O)c2cc(-n3cccc3)ccc2O)nc1-c1ccccc1` [Compound 222] yielded an inhibition at 1 µg/mL [1] of 74% and an inhibition at 10 µg/mL [2] of 90.1%.

Compound `O=C(Nc1ccc(Cl)cc1)c1cc2c(cc1O)[nH]c1ccccc12` [Compound 30, N-(4-Chlorophenyl)-2-hydroxy-9H-carbazole-3-carboxamide] has an inhibition at 1 µg/mL [1] of 76.5% and an inhibition at 10 µg/mL [2] of 98.1%.

`O=C(Nc1ccccc1)c1cc(Br)ccc1O` [Compound 139] gave an inhibition at 1 µg/mL [1] of -48.2% and an inhibition at 10 µg/mL [2] of 60.2%.

Compound `CCOC(=O)c1sc(NC(=O)c2cc(Br)ccc2O)nc1C(F)(F)F` [Compound 216] has an inhibition at 1 µg/mL [1] of 87.6% and an inhibition at 10 µg/mL [2] of 96.5%.

`CCOC(=O)c1c[nH]c2c(NC(=O)c3ccccc3OC(C)=O)cccc12` [Compound 45, 7-[(2-Acetoxybenzoyl)amino]indole-3-carboxylic acid ethyl ester] showed an inhibition at 1 µg/mL [1] of 61.7% and an inhibition at 10 µg/mL [2] of 91.3%.

For `O=C(Nc1cnc2ccccc2c1)c1cc(Cl)ccc1O` [Compound 46, 5-Chloro-2-hydroxy-N-(quinolin-3-yl)benzamide], the inhibition at 1 µg/mL [1] was -43.7% and the inhibition at 10 µg/mL [2] was 85.7%.

`O=C(Nc1nc(-c2ccccc2)c(-c2ccccc2)o1)c1cc(Br)ccc1O` [Compound 38, 5-Bromo-N-(4,5-diphenyloxazol-2-yl)-2-hydroxybenzamide] was tested, and the inhibition at 1 µg/mL [1] was -10.1% and the inhibition at 10 µg/mL [2] was 81.8%.

In the case of `CN(C(=O)c1cc(Cl)ccc1O)c1cc(C(F)(F)F)cc(C(F)(F)F)c1` [Compound 16, N-[3,5-Bis(trifluoromethyl)phenyl]-5-chloro-2-hydroxy-N-methylbenzamide], the inhibition at 1 µg/mL [1] was 36.4% and the inhibition at 10 µg/mL [2] was 91.6%.

Compound `O=C(Nc1ccc(Cl)c(Cl)c1)c1cc(Br)ccc1O` [Compound 143] has an inhibition at 1 µg/mL [1] of 91.6% and an inhibition at 10 µg/mL [2] of 93.8%.

`O=C(Nc1cc(Cl)cc(Cl)c1)c1cc(Br)cc(Br)c1O` [Compound 150] showed an inhibition at 1 µg/mL [1] of 91.4% and an inhibition at 10 µg/mL [2] of 95.1%.

`O=C(Nc1ccc(Cl)c(C(F)(F)F)c1)c1cc(Br)ccc1O` [Compound 109] showed an inhibition at 1 µg/mL [1] of 83% and an inhibition at 10 µg/mL [2] of 88.8%.

`O=C(Nc1cc(Cl)cc(Cl)c1)c1cc(F)ccc1O` [Compound 146] showed an inhibition at 1 µg/mL [1] of 94.2% and an inhibition at 10 µg/mL [2] of 97%.

Work on `COc1ccc(C(=O)C=Cc2ccccc2OC)c(O)c1` [Compound 6, 1-(2-Hydroxy-4-methoxyphenyl)-3-(2-methoxyphenyl)propen-1-one] yielded an inhibition at 1 µg/mL [1] of 27.8% and an inhibition at 10 µg/mL [2] of 61.9%.

In the case of `O=C(Nc1cc(-c2ccccc2)[nH]n1)c1cc(Br)ccc1O` [Compound 36, 5-Bromo-2-hydroxy-N-(5-phenylpyrazol-3-yl)benzamide], the inhibition at 1 µg/mL [1] was 26.6% and the inhibition at 10 µg/mL [2] was 84.7%.

For `COc1ccc(NC(=O)c2cc(Cl)ccc2O)cc1C(F)(F)F` [Compound 121], the inhibition at 1 µg/mL [1] was 85.5% and the inhibition at 10 µg/mL [2] was 96.5%.

Work on `COc1ccc(OC)c(NC(=O)c2cc(Br)ccc2O)c1` [Compound 167] yielded an inhibition at 1 µg/mL [1] of 32.4% and an inhibition at 10 µg/mL [2] of 95.7%.

For `O=C(Nc1cc(C(F)(F)F)cc(C(F)(F)F)c1)c1ccccc1O` [Compound 48], the inhibition at 1 µg/mL [1] was 93.3% and the inhibition at 10 µg/mL [2] was 95.6%.

`O=C(Nc1cc(Cl)cc(Cl)c1)c1c(O)ccc2ccccc12` [Compound 18, N-(3,5-Dichlorophenyl)-2-hydroxy-1-naphthamide] showed an inhibition at 1 µg/mL [1] of 85.3% and an inhibition at 10 µg/mL [2] of 90.2%.

`CCc1nc(NC(=O)c2cc(Br)ccc2O)sc1-c1ccccc1` [Compound 192] gave an inhibition at 1 µg/mL [1] of 28.8% and an inhibition at 10 µg/mL [2] of 87.6%.

With `CCOC(=O)c1c(NC(=O)c2cc(Cl)ccc2O)sc2c1CCCC2` [Compound 35, 2-(5-Chloro-2-hydroxybenzoyl)amino-4,5,6,7-tetrahydrobenzo[b]-thiophene-3-carboxylic acid ethyl ester] the inhibition at 1 µg/mL [1] was 88.2% and the inhibition at 10 µg/mL [2] was 85.4%.

`O=C(Nc1cc(Cl)cc(Cl)c1)c1cc(Br)ccc1O` [Compound 148] gave an inhibition at 1 µg/mL [1] of 77.1% and an inhibition at 10 µg/mL [2] of 92.8%.

In the case of `O=C(Nc1ccccc1O)c1cc(C(F)(F)F)cc(C(F)(F)F)c1` [Compound 11, 3,5-Bis(trifluoromethyl)-N-(2-hydroxyphenyl)benzamide], the inhibition at 1 µg/mL [1] was 28.4% and the inhibition at 10 µg/mL [2] was 44.1%.

In the case of `O=C(Nc1cc(C(F)(F)F)cc(C(F)(F)F)c1)c1ncccc1O` [Compound 27, N-[3,5-Bis(trifluoromethyl)phenyl]-3-hydroxypyridine-2-carboxamide], the inhibition at 1 µg/mL [1] was 68.5% and the inhibition at 10 µg/mL [2] was 47.3%.

Compound `O=C(Nc1cc(C(F)(F)F)ccc1N1CCCC1)c1cc(Br)ccc1O` [Compound 126] has an inhibition at 1 µg/mL [1] of 95.8% and an inhibition at 10 µg/mL [2] of 97.8%.

For `Cc1nc(NC(=O)c2cc(Br)ccc2O)sc1-c1cccc(C(F)(F)F)c1` [Compound 190], the inhibition at 1 µg/mL [1] was -32.4%.

For `O=C(Nc1cc(C(F)(F)F)cc(C(F)(F)F)c1)c1cc(F)ccc1O` [Compound 49], the inhibition at 1 µg/mL [1] was 81.5% and the inhibition at 10 µg/mL [2] was 94.3%.

With `O=C(Nc1nnc(C(F)(F)F)s1)c1ccccc1O` [Compound 40, 2-Hydroxy-N-5-[(trifluoromethyl)-1,3,4-thiadiazol-2-yl]benzamide] the “The rate of inhibitory activity against NF-κB activation (%)” value (from here on “The rate of inhibitory activity … (%)”) [1] was 3.9% and the “The rate of inhibitory activity … (%)” value [2] was 81.9%.

`CC(O)c1ccc(O)c(C(=O)Nc2cc(C(F)(F)F)cc(C(F)(F)F)c2)c1` (centres unmarked) [Compound 57] gave an inhibition at 1 µg/mL [1] of 76.8% and an inhibition at 10 µg/mL [2] of 96%.

With `O=C(Nc1ccc(C(F)(F)F)cc1)c1cc(Cl)ccc1O` [Compound 128] the inhibition at 1 µg/mL [1] was 87.2% and the inhibition at 10 µg/mL [2] was 95%.

`O=C(Nc1ccc(F)c(C(F)(F)F)c1)c1cc(Cl)ccc1O` [Compound 108] showed an inhibition at 1 µg/mL [1] of 94.7% and an inhibition at 10 µg/mL [2] of 97.6%.

Compound `C=C(c1ccc(Cl)cc1)c1cc(Cl)ccc1O` [Compound 9, 4-Chloro-2-[(4-chlorophenyl)ethen-2-yl]phenol] has an inhibition at 1 µg/mL [1] of 21.9% and an inhibition at 10 µg/mL [2] of 99.2%.

Compound `O=C(Nc1ccc(C(F)(F)F)cc1Cl)c1cc(Br)ccc1O` [Compound 129] has an inhibition at 1 µg/mL [1] of 75.4% and an inhibition at 10 µg/mL [2] of 85.8%.

`O=C(Nc1cccc(Cl)c1)c1cc(Br)ccc1O` [Compound 140] showed an inhibition at 1 µg/mL [1] of 94.2% and an inhibition at 10 µg/mL [2] of 96.7%.

`O=C(Nc1cc(C(F)(F)F)cc(C(F)(F)F)c1)c1cc(-c2ccsc2)ccc1O` [Compound 73] showed an inhibition at 1 µg/mL [1] of 81.7% and an inhibition at 10 µg/mL [2] of 92.9%.

With `Cc1cnc(NC(=O)c2cc(Br)ccc2O)s1` [Compound 185] the inhibition at 1 µg/mL [1] was -1.5% and the inhibition at 10 µg/mL [2] was 69.7%.

In the case of `O=S(=O)(Nc1cc(Cl)ccc1O)c1cc(Cl)cc(Cl)c1` [Compound 13, N-(5-Chloro-2-hydroxyphenyl)-3,5-dichlorobenesulfonamide], the “The rate of inhibitory activity … (%)” value [1] was −7.1% and the “The rate of inhibitory activity … (%)” value [2] was 63.8%.

`Cc1ccc(O)c(C(=O)C=Cc2ccc3c(c2)OCCCO3)c1` [Compound 7, 3-(3,4-Dihydro-2H-benzo[b][1,4]dioxepin-7-yl)-1-(2-hydroxy-5-methylphenyl)propen-1-one] gave an inhibition at 1 µg/mL [1] of 30.4% and an inhibition at 10 µg/mL [2] of 68.7%.

`O=C(Nc1cc(Cl)cc(Cl)c1)c1ccc(Cl)cc1O` [Compound 151] was tested, and the inhibition at 1 µg/mL [1] was -42.8% and the inhibition at 10 µg/mL [2] was 71.8%.

In the case of `Cc1ccc(C(F)(F)F)cc1NC(=O)c1cc(Cl)ccc1O` [Compound 120], the inhibition at 1 µg/mL [1] was 93.8% and the inhibition at 10 µg/mL [2] was 97.9%.

Work on `O=C(Nc1cc(Cl)cc(Cl)c1)c1cc2ccccc2cc1O` [Compound 19, N-(3,5-Dichlorophenyl)-3-hydroxy-2-naphthamide] yielded an inhibition at 1 µg/mL [1] of -55.4% and an inhibition at 10 µg/mL [2] of 95.1%.

Compound `C#Cc1ccc(O)c(C(=O)Nc2cc(C(F)(F)F)cc(C(F)(F)F)c2)c1` [Compound 64] has an inhibition at 1 µg/mL [1] of 53.3% and an inhibition at 10 µg/mL [2] of 90.1%.

`O=C(Nc1cc(C(F)(F)F)cc(C(F)(F)F)c1)c1cc(N=Nc2ccc([N+](=O)[O-])cc2)ccc1O` [Compound 93] gave an inhibition at 1 µg/mL [1] of 96.2% and an inhibition at 10 µg/mL [2] of 98.7%.

`O=C(Nc1cc(C(F)(F)F)cc(C(F)(F)F)c1)c1cc(Cl)cnc1O` [Compound 24, N-[3,5-Bis(trifluoromethyl)phenyl]-5-chloro-2-hydroxypyridine-3-carboxamide] showed an inhibition at 1 µg/mL [1] of 58.1% and an inhibition at 10 µg/mL [2] of 82.2%.

In the case of `CCn1c2ccccc2c2cc(NC(=O)c3cc(Cl)ccc3O)ccc21` [Compound 47, N-(9-Ethylcarbazol-3-yl)-5-chloro-2-hydroxybenzamide], the inhibition at 1 µg/mL [1] was 91.3% and the inhibition at 10 µg/mL [2] was 99.4%.

`Cc1ccc(NC(=O)c2cc(Cl)ccc2O)cc1C(F)(F)F` [Compound 119] gave an inhibition at 1 µg/mL [1] of 88.1% and an inhibition at 10 µg/mL [2] of 91.7%.

Work on `O=C(Nc1cc(C(F)(F)F)cc(C(F)(F)F)c1)c1cc(C(F)(F)F)ccc1O` [Compound 69] yielded an inhibition at 1 µg/mL [1] of 96.4% and an inhibition at 10 µg/mL [2] of 99.6%.

Work on `COc1ccc(C(F)(F)F)cc1NC(=O)c1cc(Br)ccc1O` [Compound 123] yielded an inhibition at 1 µg/mL [1] of 76.6% and an inhibition at 10 µg/mL [2] of 93.4%.

For `Cc1ccc(O)c(C(=O)Nc2cc(C(F)(F)F)cc(C(F)(F)F)c2)c1` [Compound 55], the inhibition at 1 µg/mL [1] was 95.8% and the inhibition at 10 µg/mL [2] was 99.4%.

In the case of `O=C(Nc1cc(C(F)(F)F)ccc1F)c1cc(Cl)ccc1O` [Compound 112], the inhibition at 1 µg/mL [1] was 93.1% and the inhibition at 10 µg/mL [2] was 95.9%.

`O=C(Nc1cc(C(F)(F)F)cc(C(F)(F)F)c1)c1ccc(O)c(C(=O)Nc2cc(C(F)(F)F)cc(C(F)(F)F)c2)c1` [Compound 82] showed an inhibition at 1 µg/mL [1] of -8.7% and an inhibition at 10 µg/mL [2] of 94.5%.
